# Source: patent US10821117B2, “Estrogen therapy for brain gray matter atrophy and associated disability” (The Regents of the University of California, priority 2014, dated 2020)
# Experiments:
# [1] = design: species or system human; settings: in vivo
# Text: Safety assessments, including clinical, blood laboratory safety testing and assessments of estriol levels, occurred at months 0, 3, 6, 12, 18, and 24. On study blood tests included complete blood count (CBC) with differential and platelets; chemistry panel including sodium, potassium, creatinine, BUN, glucose, total protein, albumin, bilirubin (total), alkaline phosphatase, AST (SGOT), and ALT (SGPT), and lipid profile (HDL, LDL and triglycerides, cholesterol. Gynecologic exams were done at month 0, 6, 18 and at month 24 exit, with uterine ultrasounds at months 6, 18 and at month 24 exit. Mammograms were done in screening and at month 24 exit. Adverse event analysis was based on the percentage of patients who discontinued the study and the percentage of patients who discontinued the study possibly due to adverse events.
# The rate of discontinuation was similar between groups (FIG. 1). A total of 60 patients (73.2%) in the Estriol plus GA group and 56 (73.7%) in the Placebo plus GA group completed the 24 month study treatment duration. Of the 158 patients, 15.8% discontinued the study during the first year (7.6% in the Estriol plus GA group and 8.2% in the Placebo plus GA group), and an additional 10.7% discontinued the study during the second year (6.3% and 4.4%, respectively). […] The most common reasons for discontinuation were lost to follow up or patient's decision based on family issues or time constraints.
# [2] = tested on: relapsing remitting multiple sclerosis patients; experiment: Brain MRI enhancing lesions and brain volumes (pairwise Jacobian integration); type: in vivo, human
# Procedure: Linear mixed effects model was carried out to compare the percent change in whole gray matter and cortical gray matter between treatment groups. For the exploratory endpoints of EDSS, PASAT, and brain volume measures, linear mixed effects model was used to compare treatment groups at 12 and 24 months. Linear mixed effects model was carried out to evaluate the association between PASAT change and percent brain volume change.
# • For Number of Enhancing Lesions, the data in this column are E+GA vs. P+GA mean of lesions number ratio (95% CI) and p-value based on mixed effect negative binomial regression model. • For Lesion Activity on Brain MRI, the data in this column are E+GA vs. P+GA odds ratio (95% CI) and p-value based on mixed effect logistic regression model. MRI Methodologies
# Dual-echo fast spin echo: TR10000, TE12/95, 50 slices, 1×1×3 mm. Fluid attenuated inversion recovery (FLAIR): TR10380, TE88, T188, T12500, 50 slices, 1×1×3 mm. Minor changes were allowed to accommodate different platforms and field strengths at each site. MRI data in Dicom format were fully anonymized prior to transfer and then uploaded to the central MRI reading center database. Prior to study onset, each site provided a dummy scan utilizing the standardized sequences for review by the central MRI reading center to verify scan quality and fidelity. Quality control was maintained at each site using standard procedures for clinical scanners (daily phantoms, stability testing). Quarterly phantoms were collected from 12 of the 15 sites, most using the standard American College of Radiology (ACR) phatom. One site upgraded from a Siemens 1.5T to a 3.0T in November 2013, resulting in the acquisition of one month 24 scan on the new scanner. One site upgraded from a Phillips Achieva 3.0T to a Pillips Intera 3.0T after the first subject completed month 24. All subsequent studies were performed on the Intera.
# MRI brain, whole gray matter, whole white matter and cortical gray matter volumes were determined using a pairwise Jacobian integration (PJI) method. Pre-processing for structural T1-weighted images included 1) N3 non-uniformity correction, 2) histogram-based intensity normalization, 3) linear standard space registration using ICBM 2009c nonlinear symmetric template, 4) patch-based brain extraction, and 5) lesion-inpainting. Inputs to PJI were a pair of baseline and follow-up pre-processed structural T1-weighed images. The PJI consisted of 1) linear skull-constrained symmetric registration, 2) halfway transformation and resampling, 3) nonlinear symmetric registration using ANTS, and 4) voxelwise Jacobian determinant calculation on the warp field. Whole gray matter and whole white matter tissue masks were generated by SPM8 Segment function. Additional nonlocal means denoising was applied. For whole brain tissue masks, the whole gray matter and whole white matter masks were combined. For cortical gray matter mask, a standard cortical mask was nonlinearly transformed and merged with gray matter mask. The standard template was the ICBM (ICBM 2009c nonlinear symmetric version), and the nonlinear registration was performed by ANTS. Finally, the Jacobian determinants were averaged within the masks for percent volume change in cortical gray matter, whole gray matter, whole white matter, and whole brain.
# [3] = tested on: relapsing remitting multiple sclerosis patients; experiment: 7/24 Spatial Recall Test, proportion with perfect score; type: in vivo, human
# Procedure: The estriol and placebo subjects were administered the 7/24 Spatial Recall Test periodically throughout the study. A perfect score on the test is 7, and for both treatment groups, the median score was also 7. Therefore, performance was assessed by the proportion of subjects in each group who achieved a perfect score on the test. […] Logistic regression for repeated measurement was used to compare the probability having a perfect score between the two treatment groups, adjusting for age, education level, and baseline recall (Table 7).
# [4] = negative value indicates improvement
# [5] = negative value indicates worsening
substance,measurement,setting,value
glatiramer acetate [Placebo + GA],Adverse events leading to discontinuation - (%),[1],(6%)
same,Endometrial biopsies performed - (%),[1],(8) %
same,Endometrial thickness >8 mm (ultrasound) - (%),[1],(36) %
same,"Fibrocystic disease on clinical exam, number",[1],4
same,"Fibrocystic disease on clinical exam, value in parentheses",[1],(5)
same,Fibroids (ultrasound) - (%),[1],(11) %
same,Mammogram with malignancy,[1],0
same,Vaginal infection - no. of events,[1],occurred more
same,"Lesion activity on Brain MRI - proportion of patients with enhancing lesion, Month 12 % (95% CI)",[2]; Month 12,21.0 (10.8-31.1) %
same,"Lesion activity on Brain MRI - proportion of patients with enhancing lesion, Month 24 % (95% CI)",[2]; Month 24,14.6 (5.2-23.9) %
same,cortical gray matter volume change from baseline,"[2]; month 12, FIG. 7C, mean percent change from baseline",−0.74%
same,whole gray matter volume change from baseline,"[2]; month 12, FIG. 7D, mean percent change from baseline",−0.68%
same,"Enhancing Lesion Volume, Change from baseline at Mon 12, Mean ± SD",[2]; [4],−18.7 ± 184
same,"Enhancing Lesion Volume, Change from baseline at Mon 12, Median",[2]; [4],0
same,"Enhancing Lesion Volume, Change from baseline at Mon 24, Mean ± SD",[2]; [4],−34.0 ± 120
same,"Enhancing Lesion Volume, Change from baseline at Mon 24, Median",[2]; [4],0
same,"Number of Enhancing Lesions, Change from baseline to Mon 12, Mean ± SD",[2]; [4],−0.5 ± 1.8
same,"Number of Enhancing Lesions, Change from baseline to Mon 12, Median",[2]; [4],0
same,"Number of Enhancing Lesions, Change from baseline to Mon 24, Mean ± SD",[2]; [4],−0.5 ± 2.4
same,"Number of Enhancing Lesions, Change from baseline to Mon 24, Median",[2]; [4],0
same,"Cortical gray matter volume % change from baseline at Month 12, Mean ± SD",[2]; [5],−0.72 ± 0.80%
same,"Cortical gray matter volume % change from baseline at Month 12, Median",[2]; [5],−0.67%
same,"Cortical gray matter volume % change from baseline at Month 24, Mean ± SD",[2]; [5],−1.04 ± 0.87%
same,"Cortical gray matter volume % change from baseline at Month 24, Median",[2]; [5],−0.93%
same,"White matter volume % change from baseline at Month 12, Mean ± SD",[2]; [5],−0.20 ± 0.83%
same,"White matter volume % change from baseline at Month 12, Median",[2]; [5],−0.11%
same,"White matter volume % change from baseline at Month 24, Mean ± SD",[2]; [5],−0.54 ± 1.12%
same,"White matter volume % change from baseline at Month 24, Median",[2]; [5],−0.56%
same,"Whole Brain volume % change from baseline at Month 12, Mean ± SD",[2]; [5],−0.50 ± 0.64%
same,"Whole Brain volume % change from baseline at Month 12, Median",[2]; [5],−0.43%
same,"Whole Brain volume % change from baseline at Month 24, Mean ± SD",[2]; [5],−0.78 ± 0.73%
same,"Whole Brain volume % change from baseline at Month 24, Median",[2]; [5],−0.91%
same,"Whole gray matter volume % change from baseline at Month 12, Mean ± SD",[2]; [5],−0.69 ± 0.71%
same,"Whole gray matter volume % change from baseline at Month 12, Median",[2]; [5],−0.68%
same,"Whole gray matter volume % change from baseline at Month 24, Mean ± SD",[2]; [5],−0.95 ± 0.76%
same,"Whole gray matter volume % change from baseline at Month 24, Median",[2]; [5],−0.93%
same,Percentage of subjects achieving a perfect score on the 7/24 Spatial Recall Test,[3]; Month 3,60.8 (45/74) %
same,Percentage of subjects achieving a perfect score on the 7/24 Spatial Recall Test,[3]; Month 6,73.2 (52/71) %
same,Percentage of subjects achieving a perfect score on the 7/24 Spatial Recall Test,[3]; Month 12,71.4 (45/63) %
same,Percentage of subjects achieving a perfect score on the 7/24 Spatial Recall Test,[3]; Month 18,63.6 (35/55) %
same,Percentage of subjects achieving a perfect score on the 7/24 Spatial Recall Test,[3]; Month 24,75.0 (42/56) %
same,"7/24 Spatial Recall Test, Estimated perfect score rate (95% CI)","[3]; logistic regression for repeated measurement, adjusted for age, education level, baseline recall","69.8 (63.4, 75.5) %"
